# In ChEMBL document CHEMBL3992513, “Synthesis, anti-inflammatory, cyclooxygenases inhibitions assays and histopathological study of poly-substituted 1,3,5-triazines: Confirmation of regiospecific pyrazole cyclization by HMBC” (Eur J Med Chem, 2017):
# Columns and labels:
# Rattus norvegicus [1] = experiment: Ulcerogenicity in Wistar albino rat model of carragenan-induced paw edema assessed as hyalinosis and coagulative necrosis of muscular layer in stomach at 50 mg/kg, po by hematoxylin and eosin staining based histopathological analysis; type: toxicity, organism-based; details: in vivo
# [2] = biological target: T1, Prostaglandin G/H synthase 1 (Ovis aries, UniProt P05979); experiment: Inhibition of ovine COX1 using arachidonic acid as substrate preincubated for 5 mins followed by substrate addition measured after 2 mins by enzyme immunoassay
# T1 sequence (P05979 whole entry): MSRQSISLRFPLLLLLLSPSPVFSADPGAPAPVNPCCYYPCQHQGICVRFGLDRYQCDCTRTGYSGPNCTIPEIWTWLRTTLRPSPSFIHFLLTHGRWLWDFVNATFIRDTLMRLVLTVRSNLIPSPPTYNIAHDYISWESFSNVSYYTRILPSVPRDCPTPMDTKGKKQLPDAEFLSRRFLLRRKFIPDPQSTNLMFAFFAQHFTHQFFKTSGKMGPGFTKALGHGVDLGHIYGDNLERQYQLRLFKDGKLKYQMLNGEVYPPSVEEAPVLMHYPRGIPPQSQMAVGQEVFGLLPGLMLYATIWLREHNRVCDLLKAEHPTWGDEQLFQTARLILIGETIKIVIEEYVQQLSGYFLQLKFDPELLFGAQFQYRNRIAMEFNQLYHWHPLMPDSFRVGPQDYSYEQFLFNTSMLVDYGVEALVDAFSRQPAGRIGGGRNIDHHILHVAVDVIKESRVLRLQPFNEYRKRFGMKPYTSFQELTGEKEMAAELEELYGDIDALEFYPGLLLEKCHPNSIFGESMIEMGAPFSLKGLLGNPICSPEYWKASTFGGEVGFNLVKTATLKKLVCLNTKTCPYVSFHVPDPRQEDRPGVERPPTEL
# Rattus norvegicus [3] = experiment: Ulcerogenicity in Wistar albino rat model of carragenan-induced paw edema assessed as degenrative changes with necrotic changes in gastric mucosa at 50 mg/kg, po by hematoxylin and eosin staining based histopathological analysis; type: toxicity, organism-based; details: in vivo
# Rattus norvegicus [4] = experiment: Anti-inflammatory activity in Wistar albino rat assessed as inhibition of carragenan-induced paw edema thickness at 50 mg/kg, po measured after 1 hr relative to control; type: functional
# Rattus norvegicus [5] = experiment: Anti-inflammatory activity in Wistar albino rat assessed as inhibition of carragenan-induced paw edema thickness at 50 mg/kg, po measured after 3 hrs relative to control; type: functional
# Rattus norvegicus [6] = experiment: Anti-inflammatory activity in Wistar albino rat assessed as inhibition of carragenan-induced paw edema thickness at 50 mg/kg, po measured after 5 hrs relative to control; type: functional
# Rattus norvegicus [7] = experiment: Ulcerogenicity in Wistar albino rat model of carragenan-induced paw edema assessed as leucocytic infiltration in sub mucosa at 50 mg/kg, po by hematoxylin and eosin staining based histopathological analysis; type: toxicity, organism-based; details: in vivo
# Rattus norvegicus [8] = experiment: Ulcerogenicity in Wistar albino rat model of carragenan-induced paw edema assessed as corrugations of muscular layer in stomach at 50 mg/kg, po by hematoxylin and eosin staining based histopathological analysis; type: toxicity, organism-based; details: in vivo
# Rattus norvegicus [9] = experiment: Ulcerogenicity in Wistar albino rat model of carragenan-induced paw edema assessed as blood vessel dilation in sub-mucosa at 50 mg/kg, po by hematoxylin and eosin staining based histopathological analysis; type: toxicity, organism-based; details: in vivo
# Rattus norvegicus [10] = experiment: Ulcerogenicity in Wistar albino rat model of carragenan-induced paw edema assessed as blood vessel congestion with edema in sub-mucosa at 50 mg/kg, po by hematoxylin and eosin staining based histopathological analysis; type: toxicity, organism-based; details: in vivo
Compound,Activity (Rattus norvegicus [1]),IC50 [2] [µM],Activity (Rattus norvegicus [3]),inhibition in vivo at 50 mg/kg (Rattus norvegicus [4]) [%],inhibition in vivo at 50 mg/kg (Rattus norvegicus [5]) [%],inhibition in vivo at 50 mg/kg (Rattus norvegicus [6]) [%],Activity (Rattus norvegicus [7]),Activity (Rattus norvegicus [8]),Activity (Rattus norvegicus [9]),Activity (Rattus norvegicus [10])
CS(=O)(=O)c1ccc(-n2nccc2-c2ccc(Nc3nc(N4CCOCC4)nc(N4CCOCC4)n3)cc2)cc1,Non-Toxic,3.87,Non-Toxic,–,–,–,–,–,–,–
CC(=O)c1ccc(Nc2nc(N3CCOCC3)nc(N3CCOCC3)n2)cc1,–,5.93,–,21,8,0,–,–,–,–
c1cc(-c2ccc(Nc3nc(N4CCOCC4)nc(N4CCOCC4)n3)cc2)on1,–,4.33,–,–,–,–,–,–,–,–
COc1cc(C2CC(c3ccc(Nc4nc(N5CCCCC5)nc(N5CCCCC5)n4)cc3)=NN2C(C)=O)cc(OC)c1OC (stereo unspecified),–,3.52,Toxic,45,34,2,Toxic,–,–,–
COc1cc(C2CC(c3ccc(Nc4nc(N5CCOCC5)nc(N5CCOCC5)n4)cc3)=NN2C(C)=O)cc(OC)c1OC (stereo unspecified),–,8.61,–,–,–,–,–,–,–,–
CC(=O)c1ccc(Nc2nc(N3CCCCC3)nc(N3CCCCC3)n2)cc1,–,8.23,–,–,–,–,–,–,–,–
Cc1ccc(-c2cc(C(F)(F)F)nn2-c2ccc(S(N)(=O)=O)cc2)cc1 [CELECOXIB],–,–,Toxic,77,72,20,Toxic,Toxic,Toxic,–
CS(=O)(=O)c1ccc(-n2nccc2-c2ccc(Nc3nc(N4CCCCC4)nc(N4CCCCC4)n3)cc2)cc1,–,7.98,–,36,38,20,–,–,–,–
c1cc(-c2ccc(Nc3nc(N4CCCCC4)nc(N4CCCCC4)n3)cc2)on1,–,7.23,–,51,26,25,–,–,–,–
COc1cc(/C=C/C(=O)c2ccc(Nc3nc(N4CCOCC4)nc(N4CCOCC4)n3)cc2)cc(OC)c1OC,Non-Toxic,4.65,Non-Toxic,58,18,15,Non-Toxic,–,–,Toxic
c1cc(-c2ccc(Nc3nc(N4CCOCC4)nc(N4CCOCC4)n3)cc2)[nH]n1,–,5.26,–,–,–,–,–,–,–,–
COc1cc(/C=C/C(=O)c2ccc(Nc3nc(N4CCCCC4)nc(N4CCCCC4)n3)cc2)cc(OC)c1OC,–,7.25,–,–,–,–,–,–,–,–
CN(C)/C=C/C(=O)c1ccc(Nc2nc(N3CCCCC3)nc(N3CCCCC3)n2)cc1,–,6.85,–,19,14,20,–,–,–,–
COc1ccc2c(c1)c(CC(=O)O)c(C)n2C(=O)c1ccc(Cl)cc1 [INDOMETHACIN],Toxic,–,Toxic,–,–,–,Toxic,–,Toxic,–
c1ccc(-n2nccc2-c2ccc(Nc3nc(N4CCOCC4)nc(N4CCOCC4)n3)cc2)cc1,Toxic,4.99,Toxic,–,–,–,Toxic,–,–,Toxic
CN(C)/C=C/C(=O)c1ccc(Nc2nc(N3CCOCC3)nc(N3CCOCC3)n2)cc1,Toxic,3.98,Toxic,–,–,–,Toxic,–,–,–
c1ccc(-n2nccc2-c2ccc(Nc3nc(N4CCCCC4)nc(N4CCCCC4)n3)cc2)cc1,–,6.42,–,32,18,2,–,–,–,–
c1cc(-c2ccc(Nc3nc(N4CCCCC4)nc(N4CCCCC4)n3)cc2)[nH]n1,–,4.95,–,58,24,5,–,–,–,–
